# Data: patent publication US20240287138A1, “CYCLIC PEPTIDES FOR INHIBITING TNF RECEPTOR 1 ACTIVITY” (Merck Sharp & Dohme LLC, priority 2023, published 2024)
# Numbered stars: 1 amine (or outer) side, 2 acyl side, 3 side chain; on linkers, the order of the positions; unused ones are H or OH. Bridge positions count the residues as written; N and C are the ends. Square brackets hold non-standard residues; d marks the D form. Peptide text beside a SMILES is read from it. * marks the point of attachment. Trp(βS-Me,7-OMe) = COc1cccc2c([C@H](C)[C@H](N)C(=O)O)c[nH]c12; Achc(cis-1,4) = O=C([C@H]1CC[C@@H](N[*:1])CC1)[*:2]; Phe(4-CH2COOH) = N[C@@H](Cc1ccc(CC(=O)O)cc1)C(=O)O; Trp(7-CN) = N#Cc1cccc2c(C[C@H](N)C(=O)O)c[nH]c12; Trp(7-Cl) = N[C@@H](Cc1c[nH]c2c(Cl)cccc12)C(=O)O; Phe(3-CONH2) = NC(=O)c1cccc(C[C@H](N)C(=O)O)c1; Phe(4-CONH2) = NC(=O)c1ccc(C[C@H](N)C(=O)O)cc1; Phe(4-COOH) = N[C@@H](Cc1ccc(C(=O)O)cc1)C(=O)O; 4Pal(3S-Me) = C[C@@H](c1ccncc1)[C@H](N)C(=O)O; Trp(7-aza) = N[C@@H](Cc1c[nH]c2ncccc12)C(=O)O; Phe(4-CH2NH2) = NCc1ccc(C[C@H](N)C(=O)O)cc1; Pip(5R-OH) = O=C(O)[C@@H]1CC[C@@H](O)CN1; αMeW = C[C@](N)(Cc1c[nH]c2ccccc12)C(=O)O; X1 = O=C([C@@H]1CC[C@H](N[*:1])C1)[*:2]; Gly(Nα-CH2CH2CONH2) = NC(=O)CCNCC(=O)O; Isoxazole(3-carbonyl) = O=C(c1ccon1)*; N(CH2CH2COOH)Gly = O=C(O)CCNCC(=O)O; Pip(4-aza) = O=C(O)[C@@H]1CNCCN1; 4Pal = N[C@@H](Cc1ccncc1)C(=O)O; NMeE = CN[C@@H](CCC(=O)O)C(=O)O; dHyp = O=C(O)[C@H]1C[C@H](O)CN1; Cit = NC(=O)NCCC[C@H](N)C(=O)O; Ahp(2) = CCCCC[C@H](N)C(=O)O; NMeDab = CN[C@@H](CCN)C(=O)O; Pip = O=C(O)[C@@H]1CCCCN1; αMeS = C[C@](N)(CO)C(=O)O; Carboxymethyl = O=C(O)C*; Nle = CCCC[C@H](N)C(=O)O; Dab = NCC[C@H](N)C(=O)O; Sar = CNCC(=O)O
# Molecular target: T1, TNFα-induced NF-κB signal transduction pathway (TNFR1 signaling) in THP-1 cells (Homo sapiens, UniProt P19438)
# T1 sequence (P19438 30-455): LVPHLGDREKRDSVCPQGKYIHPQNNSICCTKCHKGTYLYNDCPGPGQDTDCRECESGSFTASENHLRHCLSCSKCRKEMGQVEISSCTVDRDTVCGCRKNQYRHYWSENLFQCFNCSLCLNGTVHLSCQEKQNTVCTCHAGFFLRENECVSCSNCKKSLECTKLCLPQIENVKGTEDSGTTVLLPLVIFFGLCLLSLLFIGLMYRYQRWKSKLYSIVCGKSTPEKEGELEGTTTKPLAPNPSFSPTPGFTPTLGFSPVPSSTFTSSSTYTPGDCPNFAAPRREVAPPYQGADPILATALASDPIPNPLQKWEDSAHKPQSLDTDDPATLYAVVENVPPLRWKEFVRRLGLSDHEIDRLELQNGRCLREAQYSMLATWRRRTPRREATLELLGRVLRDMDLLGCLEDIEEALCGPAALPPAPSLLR
# Test: THP-1 Lucia NF-κB reporter cell assay, inhibition of TNFα-induced NF-κB signaling
# Assay type: cell-based
# Conditions: THP-1 NF-κB Lucia reporter cells, 10 ng/mL TNFα, 16-18 h, secreted luciferase; read-out: THP-1 IC50
# Outline: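 Inhibition of TNFR1-driven NF-κB activation was measured as luminescence of secreted reporter luciferase following overnight (16-18 h) stimulation with 10 ng/mL TNFα.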
row,Compound,IC50 [nM]
1,"CCCCC[C@@H]1NC(=O)[C@@H]2CC[C@@H](C2)NC(=O)[C@H]([C@@H](C)c2c[nH]c3c(OC)cccc23)NC(=O)CN(C)C(=O)[C@H](Cc2cccc(C(N)=O)c2)NC(=O)[C@H](Cc2ccc(C(N)=O)cc2)NC(=O)[C@](C)(CO)NC(=O)[C@H](Cc2c[nH]c3c(C#N)cccc23)NC(=O)[C@H](Cc2ccncc2)NC(=O)[C@H](CC(N)=O)NC(=O)[C@H]2C[C@H](O)CN2C(=O)[C@H](Cc2c[nH]c3ccccc23)NC(=O)[C@@H]2CNCCN2C(=O)[C@H](Cc2ccncc2)NC1=O [SEQ ID NO. 174] (cyclo([4Pal][Trp(7-CN)][αMeS][Phe(4-CONH2)][Phe(3-CONH2)][Sar][Trp(βS-Me,7-OMe)][X1][Ahp(2)][4Pal][Pip(4-aza)]W[dHyp]N))",0.7
2,CCCC[C@@H]1NC(=O)CSC[C@@H](C(N)=O)NC(=O)[C@](C)(Cc2c[nH]c3ccccc23)NC(=O)CN(C)C(=O)[C@H](Cc2ccc(O)cc2)NC(=O)[C@H](Cc2ccc(OCC(=O)O)cc2)NC(=O)[C@](C)(CO)NC(=O)[C@H](Cc2c[nH]c3c(Cl)cccc23)NC(=O)[C@H](Cc2ccncc2)NC(=O)[C@H](CC(N)=O)NC(=O)[C@H](CCC(=O)O)N(C)C(=O)[C@H](Cc2c[nH]c3ncccc23)NC(=O)[C@H](CO)NC(=O)[C@H](Cc2ccc(CN)cc2)NC1=O [SEQ ID NO. 283] ({CH2CO}-[Nle][Phe(4-CH2NH2)]S[Trp(7-aza)][NMeE]N[4Pal][Trp(7-Cl)][αMeS]Y(Carboxymethyl)Y[Sar][αMeW]C-NH2; thioether N-14),6.4
3,CCCC[C@@H]1NC(=O)CSC[C@@H](C(N)=O)NC(=O)[C@](C)(Cc2c[nH]c3ccccc23)NC(=O)CN(C)C(=O)[C@H](Cc2ccc(O)cc2)NC(=O)[C@H](Cc2ccc(C(=O)O)cc2)NC(=O)[C@](C)(CO)NC(=O)[C@H](Cc2c[nH]c3c(Cl)cccc23)NC(=O)[C@H](Cc2ccncc2)NC(=O)[C@H](CC(N)=O)NC(=O)[C@H](CCC(=O)O)N(C)C(=O)[C@H](Cc2c[nH]c3ncccc23)NC(=O)[C@H](CCN)N(C)C(=O)[C@H](Cc2ccncc2)NC1=O [SEQ ID NO. 231] ({CH2CO}-[Nle][4Pal][NMeDab][Trp(7-aza)][NMeE]N[4Pal][Trp(7-Cl)][αMeS][Phe(4-COOH)]Y[Sar][αMeW]C-NH2; thioether N-14),6.1
4,"CCCC[C@@H]1NC(=O)[C@@H]2CC[C@@H](C2)NC(=O)[C@H]([C@@H](C)c2c[nH]c3c(OC)cccc23)NC(=O)CN(C)C(=O)[C@H](Cc2ccc(C(N)=O)cc2)NC(=O)[C@H](Cc2ccc(C(N)=O)cc2)NC(=O)[C@](C)(CO)NC(=O)[C@H](Cc2c[nH]c3c(Cl)cccc23)NC(=O)[C@H](Cc2ccncc2)NC(=O)[C@H](CC(N)=O)NC(=O)[C@H](CCC(=O)O)N(C)C(=O)[C@H](Cc2c[nH]c3ccccc23)NC(=O)[C@@H]2CC[C@@H](O)CN2C(=O)[C@H](Cc2ccncc2)NC1=O [SEQ ID NO. 229] (cyclo([4Pal][Trp(7-Cl)][αMeS][Phe(4-CONH2)][Phe(4-CONH2)][Sar][Trp(βS-Me,7-OMe)][X1][Nle][4Pal][Pip(5R-OH)]W[NMeE]N))",0.5
5,CCCC[C@@H]1NC(=O)CSC[C@@H](C(N)=O)NC(=O)[C@](C)(Cc2c[nH]c3ccccc23)NC(=O)CN(C)C(=O)[C@H](Cc2ccc(O)cc2)NC(=O)[C@H](Cc2ccc(CC(=O)O)cc2)NC(=O)[C@](C)(CO)NC(=O)[C@H](Cc2c[nH]c3c(Cl)cccc23)NC(=O)[C@H](Cc2ccncc2)NC(=O)[C@H](CC(N)=O)NC(=O)[C@H](CCC(=O)O)N(C)C(=O)[C@H](Cc2c[nH]c3ncccc23)NC(=O)[C@H](CO)NC(=O)[C@H](Cc2ccc(CN)cc2)NC1=O [SEQ ID NO. 224] ({CH2CO}-[Nle][Phe(4-CH2NH2)]S[Trp(7-aza)][NMeE]N[4Pal][Trp(7-Cl)][αMeS][Phe(4-CH2COOH)]Y[Sar][αMeW]C-NH2; thioether N-14),4.8
6,"CCCC[C@@H]1NC(=O)[C@H]2CC[C@H](CC2)NC(=O)[C@H]([C@@H](C)c2c[nH]c3c(OC)cccc23)NC(=O)CN(C)C(=O)[C@H](Cc2ccc(O)cc2)NC(=O)[C@H](Cc2ccc(C(=O)O)cc2)NC(=O)[C@](C)(CO)NC(=O)[C@H](Cc2c[nH]c3c(Cl)cccc23)NC(=O)[C@H](Cc2ccncc2)NC(=O)[C@H](CC(N)=O)NC(=O)[C@H](CCC(=O)O)N(C)C(=O)[C@H](Cc2c[nH]c3ccccc23)NC(=O)[C@H](CO)NC(=O)[C@H](Cc2ccc(CN)cc2)NC1=O [SEQ ID NO. 244] (cyclo([4Pal][Trp(7-Cl)][αMeS][Phe(4-COOH)]Y[Sar][Trp(βS-Me,7-OMe)][Achc(cis-1,4)][Nle][Phe(4-CH2NH2)]SW[NMeE]N))",4.5
7,"COc1cccc2c([C@H](C)[C@@H]3NC(=O)CN(C)C(=O)[C@H](Cc4cccc(C(N)=O)c4)NC(=O)[C@H](Cc4ccc(C(N)=O)cc4)NC(=O)[C@](C)(CO)NC(=O)[C@H](Cc4c[nH]c5c(Cl)cccc45)NC(=O)[C@H](Cc4ccncc4)NC(=O)[C@H](CC(N)=O)NC(=O)[C@H]4C[C@H](O)CN4C(=O)[C@H](Cc4c[nH]c5ccccc45)NC(=O)[C@@H]4CC[C@@H](O)CN4C(=O)[C@H](Cc4ccncc4)NC(=O)[C@H](CCNC(=O)c4ccon4)NC(=O)[C@@H]4CC[C@@H](C4)NC3=O)c[nH]c12 [SEQ ID NO. 169] (cyclo([4Pal][Trp(7-Cl)][αMeS][Phe(4-CONH2)][Phe(3-CONH2)][Sar][Trp(βS-Me,7-OMe)][X1][Dab](Isoxazole(3-carbonyl))[4Pal][Pip(5R-OH)]W[dHyp]N))",0.6
8,"CCCCC[C@@H]1NC(=O)[C@@H]2CC[C@@H](C2)NC(=O)[C@H]([C@@H](C)c2c[nH]c3c(OC)cccc23)NC(=O)CN(C)C(=O)[C@H](Cc2ccc(C(N)=O)cc2)NC(=O)[C@H](Cc2ccc(C(N)=O)cc2)NC(=O)[C@](C)(CO)NC(=O)[C@H](Cc2c[nH]c3c(C#N)cccc23)NC(=O)[C@H](Cc2ccc(C(=O)O)cc2)NC(=O)[C@H](CC(N)=O)NC(=O)[C@H]2C[C@H](O)CN2C(=O)[C@H](Cc2c[nH]c3ccccc23)NC(=O)[C@H](CCCNC(N)=O)NC(=O)[C@H]([C@@H](C)c2ccncc2)NC1=O [SEQ ID NO. 110] (cyclo([Ahp(2)][4Pal(3S-Me)][Cit]W[dHyp]N[Phe(4-COOH)][Trp(7-CN)][αMeS][Phe(4-CONH2)][Phe(4-CONH2)][Sar][Trp(βS-Me,7-OMe)][X1]))",1.2
9,"CCCC[C@@H]1NC(=O)[C@@H]2CC[C@@H](C2)NC(=O)[C@H]([C@@H](C)c2c[nH]c3c(OC)cccc23)NC(=O)CN(C)C(=O)[C@H](Cc2ccc(C(=O)O)cc2)NC(=O)[C@H](Cc2ccc(C(N)=O)cc2)NC(=O)[C@](C)(CO)NC(=O)[C@H](Cc2c[nH]c3c(C#N)cccc23)NC(=O)[C@H](Cc2ccc(C(=O)O)cc2)NC(=O)[C@H](CC(N)=O)NC(=O)CN(CCC(N)=O)C(=O)[C@H](Cc2c[nH]c3ccccc23)NC(=O)[C@@H]2CC[C@@H](O)CN2C(=O)[C@H](Cc2ccncc2)NC1=O [SEQ ID NO. 130] (cyclo([4Pal][Pip(5R-OH)]W[Gly(Nα-CH2CH2CONH2)]N[Phe(4-COOH)][Trp(7-CN)][αMeS][Phe(4-CONH2)][Phe(4-COOH)][Sar][Trp(βS-Me,7-OMe)][X1][Nle]))",0.7
10,"CCCC[C@@H]1NC(=O)[C@@H]2CC[C@@H](C2)NC(=O)[C@H]([C@@H](C)c2c[nH]c3c(OC)cccc23)NC(=O)CN(C)C(=O)[C@H](Cc2ccc(O)cc2)NC(=O)[C@H](Cc2ccc(C(=O)O)cc2)NC(=O)[C@](C)(CO)NC(=O)[C@H](Cc2c[nH]c3c(Cl)cccc23)NC(=O)[C@H](Cc2ccncc2)NC(=O)[C@H](CC(N)=O)NC(=O)CN(C)C(=O)[C@H](Cc2c[nH]c3ccccc23)NC(=O)[C@@H]2CNCCN2C(=O)[C@H](Cc2ccncc2)NC1=O [SEQ ID NO. 141] (cyclo([4Pal][Trp(7-Cl)][αMeS][Phe(4-COOH)]Y[Sar][Trp(βS-Me,7-OMe)][X1][Nle][4Pal][Pip(4-aza)]W[Sar]N))",1.2
11,"CCCC[C@@H]1NC(=O)[C@@H]2CC[C@@H](C2)NC(=O)[C@H]([C@@H](C)c2c[nH]c3c(OC)cccc23)NC(=O)CN(C)C(=O)[C@H](Cc2ccc(O)cc2)NC(=O)[C@H](Cc2ccc(C(N)=O)cc2)NC(=O)[C@](C)(CO)NC(=O)[C@H](Cc2c[nH]c3c(Cl)cccc23)NC(=O)[C@H](Cc2ccncc2)NC(=O)[C@H](CC(N)=O)NC(=O)[C@H](CCC(=O)O)N(C)C(=O)[C@H](Cc2c[nH]c3ccccc23)NC(=O)[C@@H]2CC[C@@H](O)CN2C(=O)[C@H](Cc2ccncc2)NC1=O [SEQ ID NO. 163] (cyclo([4Pal][Trp(7-Cl)][αMeS][Phe(4-CONH2)]Y[Sar][Trp(βS-Me,7-OMe)][X1][Nle][4Pal][Pip(5R-OH)]W[NMeE]N))",0.7
12,"CCCC[C@@H]1NC(=O)CSC[C@@H](C(N)=O)NC(=O)[C@H]([C@@H](C)c2c[nH]c3c(OC)cccc23)NC(=O)CN(C)C(=O)[C@H](Cc2ccc(O)cc2)NC(=O)[C@H](Cc2ccc(C(=O)O)cc2)NC(=O)[C@](C)(CO)NC(=O)[C@H](Cc2c[nH]c3c(Cl)cccc23)NC(=O)[C@H](Cc2ccncc2)NC(=O)[C@H](CC(N)=O)NC(=O)CN(CCC(=O)O)C(=O)[C@H](Cc2c[nH]c3ncccc23)NC(=O)[C@@H]2CCCCN2C(=O)[C@H](Cc2ccncc2)NC1=O [SEQ ID NO. 220] ({CH2CO}-[Nle][4Pal][Pip][Trp(7-aza)][N(CH2CH2COOH)Gly]N[4Pal][Trp(7-Cl)][αMeS][Phe(4-COOH)]Y[Sar][Trp(βS-Me,7-OMe)]C-NH2; thioether N-14)",2.9
